Each block holds one molecule with its values, some of them ahead of it.
How the values were obtained:
[1] = system: complement activation (alternative pathway); details: WO2004/026328; cited from earlier work
[2] = system: complement activation via the classical pathway; experiment: classical complement inhibition assay (C3b deposition ELISA); type: biochemical, Human
Description: Inhibitory activity of the synthesized compounds was assessed by measuring the effect of the compounds on complement activation via the classical pathway using a standard complement inhibition assay. The protocol measures C3b deposition in an ELISA format. C3b deposition monitored using this method is generated through complement activated by the classical pathway. Briefly, 96-well plates are coated with BSA. Human plasma, chicken ovalbumin (OVA), polyclonal anti-OVA antibodies and compound being tested (referred to as “drug”) are added and incubated, followed by addition of Anti-human C3 HRP-conjugated antibody. After an additional incubation, substrate is added and signal detected. Details of the protocol are as follows:
Protocol for Classical Complement Inhibition Assay
• Ninety-six well plate (polystyrene plate, Thermo Scientific, 9205) • Chicken OVA (Sigma A5503-5G) • Rabbit anti-chicken OVA (Abcam ab1221) • Blocking buffer (Startingblock buffer, Thermo Scientific 37538) • Veronal Buffer (5× concentration, Lonza 12-624E) • Human plasma (collected with Lepirudin at 50 ug/ml final concentration) • Goat anti-human C3 HRP-conjugated Ab (MP Biomedicals, 55237) • Tween-20 Wash Buffer (0.05% Tween 20-PBS buffer) • TMB (Peroxidase substrate, BD 555214)—1:1 mixture of BD 51-2607KC and 51-2606KC. • 1M H2SO4
• 1. […] Read the plate at 450 nm
Data was analyzed using GraphPad Prism5 software. […]

[3] = system: RBCs from a patient with PNH; experiment: modified Ham's test with flow cytometry for CD59 and C3d (Example 18); type: cell-based, human; details: for % C′3 (Type I) / % C′3 (Type II) / % C′3 (Type III): cells positive for C3 loading
Description: A modified Ham's test was performed to assess the ability of compstatin analogs to protect PNH RBCs from complement-mediated lysis. […] Exposure to heat inactivated human serum was used as a control representing no significant complement-mediated lysis as complement is inactivated by heat. Exposure to acidified human serum and magnesium (Mg^2+) in the absence of complement inhibitors (pane labeled Mg^2+) was used as a control representing maximum lysis.
Following incubation, cells were stained with antibodies to CD59 and C3d. Cd59 level permitted the classification of the PNH RBCs as Type I, Type II, or Type III. Staining for C3d, a product of C3 activation and cleavage was used as a marker of C3 and C3 activation product deposition (loading). Flow cytometric analysis was performed to assess CD59 and C3d on RBC surfaces and to quantify the percentages of Type I, Type II, and Type III cells present in various samples.
Type I cells (shown in orange in FIG. 12) have normal levels of CD59. Type III cells (shown in blue in FIG. 12) have essentially no detectable CD59. […] Type II cells (shown in purple in FIG. 12) have reduced levels of CD59 as compared with normal or Type I cells and have an intermediate sensitivity to complement-mediated lysis. […] Reduction in or absence of lysis may be evidenced by increased levels of C3 or C3 activation products on Type II cells, as is evident by comparing the level of C3d on Type II cells in the no lysis panel with the level of C3d on Type II cells in the max. lysis panel in both FIGS. 12(A) and 12(B). […] A shift in the relative percentages of Type I, II, and III cells from the percentages present in the max. lysis control panels (Mg^2+) towards the percentages present in the no lysis control panels (heat inactivated serum) is indicative of protection against complement-mediated lysis. The column labeled % C′3 in Table 11 refers to the percentage of cells deemed “positive” for presence of C3 and C3 activation products (“C3 loading”).

[4] = system: PNH RBCs; experiment: modified Ham's assay, comparison with Soliris (Example 19); type: cell-based, human; details: CA28-2GS-BF at 50 ug/ml
Description: Flow cytometry was performed after antibody staining using antibodies against CD59 and C3d. In this figure, quadrant 1 (Q1) and quadrant 3 (Q3) represent Type III cells. Quadrant 2 (Q2) and quadrant 4 (Q4) represent Types I and II cells. Q1 and Q2 represent cells with a significant and abnormally high amount of C3 activation product (e.g., C3d) deposition.

[5] = target: T1, complement component C3 (human) (human, UniProt P01024 23-1663); experiment: cell-based or functional assay
[6] = target: T1, complement component C3 (human); experiment: cell-based or functional assay; remark: listed apart in the source
[7] = target: T1, complement component C3 (human); experiment: cell-based or functional assay; remark: listed apart in the source

Molecule: CC[C@H](C)[C@H](N)C(=O)N[C@H]1CSSC[C@@H](C(=O)N[C@H](C(N)=O)[C@@H](C)O)NC(=O)[C@H](CCCN=C(N)N)NC(=O)[C@H](Cc2cnc[nH]2)NC(=O)[C@H](Cc2cnc[nH]2)NC(=O)CNC(=O)[C@H](Cc2c[nH]c3ccccc23)NC(=O)[C@H](CC(=O)O)NC(=O)[C@H](CCC(N)=O)NC(=O)[C@H](C(C)C)NC(=O)[C@H](C(C)C)NC1=O [Compstatin]
- IC50 [1]: 12000 nM

Molecule: CA28-2GS-BF: two CA28-AEEAc-Lys moieties coupled to bifunctional linear 40 kD PEG, NHS-OCO(CH2)3COO-PEG-CO(CH2)3COO-NHS
- activity per compstatin analog (peptide) moiety compared with CA28 [2]: less than the activity of an individual CA28 molecule
- complement inhibiting activity compared with CA28 on a molar basis [2]: virtually identical
- C3 loading on PNH red cells ([3]; at 100 micrograms/ml compound or higher concentrations): virtually no C3 loading
- Type III % ([3]; compound at 20 micrograms/ml): 19.19%
- % C′3 (Type I) ([3]; compound at 20 micrograms/ml): 2.18%
- % C′3 (Type II) ([3]; compound at 20 micrograms/ml): 12.28%
- % C′3 (Type III) ([3]; compound at 20 micrograms/ml): 0.99%
- % C′3 (Type I) ([3]; compound at 40 micrograms/ml): 2.84%
- % C′3 (Type III) ([3]; compound at 40 micrograms/ml): 1.21%
- Type III % ([3]; compound at 50 micrograms/ml): 13.87%
- % C′3 (Type I) ([3]; compound at 50 micrograms/ml): 2.28%
- % C′3 (Type III) ([3]; compound at 50 micrograms/ml): 1.29%
- % C′3 (Type I) ([3]; compound at 60 micrograms/ml): 2.05%
- % C′3 (Type II) ([3]; compound at 60 micrograms/ml): 13.04%
- % C′3 (Type III) ([3]; compound at 60 micrograms/ml): 1.44%
- Type II % ([3]; compound at 100 micrograms/ml): 53.93%
- % C′3 (Type I) ([3]; compound at 100 micrograms/ml): 0.07%
- % C′3 (Type II) ([3]; compound at 100 micrograms/ml): 0.88%
- % C′3 (Type III) ([3]; compound at 100 micrograms/ml): 0.11%
- Type II % ([3]; compound at 200 micrograms/ml): 51.99%
- % C′3 (Type I) ([3]; compound at 200 micrograms/ml): 0.02%
- % C′3 (Type II) ([3]; compound at 200 micrograms/ml): 0.26%
- % C′3 (Type III) ([3]; compound at 200 micrograms/ml): 0.02%
- Type II % ([3]; compound at 500 micrograms/ml): 51.87%
- Type III % ([3]; compound at 500 micrograms/ml): 37.87%
- % C′3 (Type I) ([3]; compound at 500 micrograms/ml): 0.04%
- % C′3 (Type II) ([3]; compound at 500 micrograms/ml): 0.3%
- % C′3 (Type III) ([3]; compound at 500 micrograms/ml): 0.05%
- Q1 # Events ([4]; Q1 = Type III cells with abnormally high C3d deposition): 23
- Q3 # Events ([4]; Q3 = Type III cells without significant C3d deposition): 153,187
- Q4 # Events ([4]; Q4 = Types I and II cells without significant C3d deposition): 95,713
- deposition of C3d / C3 activation products on PNH RBCs ([4]; activated complement): essentially no deposition of C3d

The remaining lines, values ahead:

- IC50, classical complement inhibition assay (C3b deposition ELISA), as a function of CA28 concentration [5]: 1930 nM
- IC50 on a molar basis, classical complement inhibition assay [6]: ~260 nM
B1: (CA28-AEEAc)8-PEG40k (peptide)
peptide: ICVWQDWGAHRCTK
modifications: N-terminal acetyl; 1-methyl-tryptophan at position 4; disulfide Cys2-Cys12; AEEAc linker after Thr13; Lys side chain coupled to one arm of an eight-arm 40 kD PEG (NOF HGEO-400GS); C-terminal amide

- IC50 (read off the curve); alternative pathway complement activation (LPS-coated plate, C3b deposition ELISA, human plasma) [B] [7]: ~400 nM
B2: CA28-2TS-BF (bifunctionalized PEG-based compstatin analog, TS type) (peptide)
peptide: ICVWQDWGAHRCTK
modifications: N-terminal acetyl; 1-methyl-tryptophan at position 4; disulfide Cys2-Cys12; AEEAc linker after Thr13; Lys side chain coupled through a carbamate to one end of a bifunctional linear 40 kD PEG (TS type); C-terminal amide

From patent US20160194359A1, “CELL-REACTIVE, LONG-ACTING, OR TARGETED COMPSTATIN ANALOGS AND RELATED COMPOSITIONS AND METHODS” (APELLIS PHARMACEUTICALS, INC., priority 2012, published 2016)
